Key:
dry eye model [1] = assay: Schirmer test (tear volume), dry eye model by erlotinib instillation (Example 1); assay type: in vivo; settings: 0.003% (w/v) apocynin in PBS, 3 μL twice daily, two weeks after start of instillation; erlotinib-instilled C57BL6 mice; FIG. 2
Text: After acclimating male C57BL6 mice (7 weeks old) to the experimental environment, those with almost uniform body weight values and no eye abnormalities were divided into the following 3 groups (n=5). • 7 weeks old/normal (non-dry eye group) • 7 weeks old/dry eye model+control (solvent eye drop) group • 7 weeks old/dry eye model+apocynin eye drop group The dry eye model was created by daily instillation of an EGF receptor inhibitor (erlotinib) based on the method of Yang et al. In this model, administration of erlotinib causes dry eye symptoms such as shortened BUT, decreased tear volume, and corneal damage after 1 week of administration (Non-patent Document 3). After 20 μM of erlotinib was instilled for 2 weeks, the control group received PBS alone, and the test group received 3 μL of a suspension of 0.003% (w/v) apocynin in PBS twice daily. Two weeks after the start of instillation, 1 μL of 0.1% sodium fluorescein solution was instilled into each of both eyes under isoflurane anesthesia, and a BUT test was performed using a slit lamp (Kowa Co., Ltd., SL-17) (FIG. 1). […] Under anesthesia, the tip of a Schirmer test paper cut to 1 mm width was inserted into the conjunctival sac of the lower eyelid of the mouse, the test paper was removed after 5 minutes, the length of the wetted part was read in units of 0.5 mm, and the value was used as the tear volume (FIG. 2).

dry eye model [2] = assay: Schirmer test (tear volume), benzalkonium chloride dry eye model, Comparative Study 1 (Example 4); assay type: in vivo, mice; settings: 0.1% (w/v) apocynin in 0.5% methylcellulose twice a day, 3 days after start; versus 0.5% (w/v) hyaluronic acid group; FIG. 8
Experimental: After acclimating male C57BL6 mice (7 weeks old) to the experimental environment, those with almost uniform weight values and no eye abnormalities were divided into the following groups (n=4). • 7 weeks old/normal (non-dry eye group) • 7 weeks old/dry eye model+control (solvent eye drop) group • 7 weeks old/dry eye model+0.1% (w/v) apocynin eye drop group • 7 weeks old/dry eye model+0.5% (w/v) hyaluronic acid eye drop group A dry eye model was prepared by instilling the benzalkonium chloride solution at 3 μL each eye, twice a day for 8 days. After that, the control group received the 0.5% methylcellulose solution alone, and the test group received 0.1% (w/v) apocynin or 0.5% (w/v) hyaluronic acid suspended in the 0.5% methylcellulose solution twice a day for 15 days at 3 μL for each of both eyes. Schirmer's test was performed 1, 3, 6, and 8 days after the start of instillation of the comparative test drug, and tear volume was evaluated.

COc1cc(C(C)=O)ccc1O [apocynin, 4-hydroxy-3-methoxyacetophenone]
tear volume (Schirmer test) (dry eye model [1]): improved
tear volume (Schirmer test) (dry eye model [2]): marked improvement in the tear volume compared to the hyaluronic acid eye drop group
